Data on 1 compound can be found in patent publication US20090142431A1 (U.S. Nutraceuticals, LLC d/b/a Valensa International, priority 2005, published 2009).

The conditions of assay [1]: compared with alpha-tocopherol; cited from earlier work.
A further assay has as its system poxvirus vGK5. The class given is cell-based.

On to `CC1=C(/C=C/C(C)=C/C=C/C(C)=C/C=C/C=C(C)/C=C/C=C(C)/C=C/C2=C(C)C(=O)C(O)CC2(C)C)C(C)(C)CC(O)C1=O` (stereo not drawn) [astaxanthin, 3,3′-dihydroxy-β,β-carotene-4,4′-dione], for which, in assay [1], the “ability to quench singlet oxygen relative to alpha-tocopherol” value is reported as “over five hundred times”. The IC50 result in the assay with poxvirus vGK5 is on record as “less than 125 ppm”.
